Experimental findings from US9108939B2, “(1, 1, 1,3,3,3-hexafluoro-2 hydroxypropan-2-yl) phenyl derivative, pharmaceutical compositions thereof and their use for the treatment of atherosclerosis” (Merck Sharp & Dohme B.V., priority 2009, dated 2015) are described below.

The target of the test is T1, recombinant human LXRβ-LBD-GST (Homo sapiens, UniProt P55055).
T1 construct: The LBD of LXRα or LXRβ was amplified by PCR and sub-cloned into the prokaryotic expression vector pGEX-4T-1; made in house; host or cells: E. coli
T1 sequence (P55055 222-460 limits assumed): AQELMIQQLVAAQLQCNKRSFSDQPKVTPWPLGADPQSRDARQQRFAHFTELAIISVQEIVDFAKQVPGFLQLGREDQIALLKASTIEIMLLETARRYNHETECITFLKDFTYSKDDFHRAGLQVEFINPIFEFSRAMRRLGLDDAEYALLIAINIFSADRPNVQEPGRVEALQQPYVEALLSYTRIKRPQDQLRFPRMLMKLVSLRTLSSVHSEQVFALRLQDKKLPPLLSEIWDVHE
The experiment in a line: Radioligand competition binding scintillation proximity assay (SpA), LXRβ. Conditions: read-out: LXRβ pKi (converted). From the text: Radioligand Competition Binding Scintillation Proximity Assay (SpA) Using Recombinant Human LXRα or LXRβ Protein
These assays utilise the purified ligand binding domain (LBD) of Liver X Receptor alpha (LXRα) or Liver X Receptor beta (LXRβ) fused to […] (GST) tagged protein (LXRα-LBD-GST and LXRβ-LBD-GST respectively) and scintillation proximity assay (SpA) technology to determine binding affinities (pKi) of compounds at the ligand binding domain (LBD) of the human nuclear hormone receptor LXRα or LXRβ.
Preparation of Recombinant Human LXRα and LXRβ
Human LXRα and LXRβ were expressed as GST-fusion proteins in E. coli.
The LBD of LXRα or LXRβ was amplified by PCR and sub-cloned into the prokaryotic expression vector pGEX-4T-1 (GE Healthcare). […] E. coli, containing either the LXRα or LXRβ pGEX-4T-1 plasmid, were propagated, induced, and harvested by centrifugation. The bacterial pellets were resuspended in lysis buffer containing 50 mM tris(Hydroxymethyl)aminomethane (TRIS)-pH 8.0, 100 mM Sodium Chloride (NaCl), 1 mM ethylenediaminetetraacetic acid (EDTA) and one tablet of Proteinase inhibitor cocktail complete/EDTA free (Roche) (per 50 mL of buffer). The mixtures were sonicated on ice with a Branson sonifier. The suspensions were centrifuged and dithiothreitol (DTT) added to the supernatants to obtain a final concentration of 25 mM. […] Proteins were stored in 20 mM N2-hydroxyethylpiperazine-N′-2-ethanesulfonic acid (HEPES), 2 mM DTT with 10% glycerol at −80° C.
Binding to LXRα or LXRβ LBDs
For LXRα or LXRβ assays, an aliquot of recombinant human LXRα-LBD-GST or LXRβ-LBD-GST protein was diluted to 0.5 μg/mL and incubated in a final volume of 100 μL SpA buffer (10 mM potassium hydrogen phosphate anhydrous [K2HPO4], 10 mM potassium Phosphate Monobasic [KH2PO4], 2 mM EDTA pH 7.1, 50 mM NaCl, 1 mM DTT, 2 mM 3-[(3-cholamidopropyl)dimethylammonio]-1-propanesulfonate (CHAPS)) containing Protein-A coupled scintillant filled YtSi SpA beads (GE Healthcare), to a final concentration of 1 mg/mL and Goat anti-GST antibody (GE Healthcare) to a final concentration of 5 μg/mL. […] Test compounds were assayed over a concentration range. After incubation, the assay plates were read on a Packard TopCount.

Take `CC(C)(O)CNC(=O)Nc1ccc(CC2CCN(Cc3ccc(C(O)(C(F)(F)F)C(F)(F)F)cc3)CC2)cc1Cl` [Example 17, 1-(2-Chloro-4-((1-(4-(1,1,1,3,3,3-hexafluoro-2-hydroxypropan-2-yl)benzyl)piperidin-4-yl)methyl)phenyl)-3-(2-hydroxy-2-methylpropyl)urea]: the Ki was 6.03 nM.
